From patent US20260053146A1 (priority 2024, published 2026)
Values after ≈ are worked out from the molar mass of the structure shown.

Experiments:
[1] = physchem; settings: pH 5.6
[2] = test system: L. crescens BT-1
[3] = test system: CLas; type: in vivo, Candidatus Liberibacter asiaticus; settings: CLas-infected citron leaves, petioles soaked with 200 ng in buffer; D. citri nymphs 21 days; versus buffer control

Molecule | solubility [1] [mg/mL] | MIC [2] [µg/mL] | ability of bacteria in treated leaves to infect psyllid nymphs (CLas abundance in adult psyllids, FIG. 4) [3]
CC[C@H](C)[C@H](NC(=O)[C@H](CC(=O)O)NC(=O)[C@H](Cc1ccccc1)NC(C)=O)C(=O)N[C@@H](CCSC)C(=O)NCC(=O)N[C@@H](CC(C)C)C(=O)N[C@H](C(=O)N[C@@H](CCCCN)C(=O)N[C@@H](CCCCN)C(=O)N[C@H](C(=O)N[C@@H](C)C(=O)NCC(=O)N[C@@H](C)C(=O)N[C@@H](CC(C)C)C(N)=O)C(C)C)[C@@H](C)CC [EMP-ER, FDIMGLIKKVAGAL] | ≥ 10 | 200 (≈ 0.132 mM) | 
Ac-FDVMGIIKKIAGAL-NH2 [EMP-EF, FDVMGIIKKIAGAL] | < 5 | 200 | 
Ac-GRILSFIKGLAEHL-NH2 [EMP-OD, GRILSFIKGLAEHL] | > 20 | 400 | 
Ac-IDWLKLGKMVMDVL-NH2 [Venom_protein_13b, IDWLKLGKMVMDVL] | < 5 | 200 | 
Ac-INLKAIAAFAKKLL-NH2 [Mastoparan-T, INLKAIAAFAKKLL] | > 20 | 200 | 
Ac-INLKAIAALARNY-NH2 [Mastoparan-VT7, INLKAIAALARNY] | < 5 | >200 | 
Ac-INLKAIAALVKKLL-NH2 [Mastoparan-VT6] | > 20 | 100 | 
Ac-INLKAIAAMAKKLL-NH2 [Mastoparan-like_12d, INLKAIAAMAKKLL] | > 20 | 400 | 
Ac-INLKAIAPLAKKLL-NH2 [Mastoparan-VT4, INLKAIAPLAKKLL] | > 20 |  | 
Ac-INLKAITALAKKLL-NH2 [Mastoparan-VT3, INLKAITALAKKLL] | ≥ 10 | 400 | 
Ac-INLLKIAKGIIKSL-NH2 [EMP-AF, INLLKIAKGIIKSL] | > 20 | 1000 | 
Ac-INMKASAAVAKKLL-NH2 [MP-VB1t, INMKASAAVAKKLL] | > 20 | >1000 | 
Ac-INWKGIAAMAKKLL-NH2 [Mastoparan-X, INWKGIAAMAKKLL] | > 20 | 1000 | 
Ac-INWKGIAAMKKLL-NH2 [Mastoparan-like_12b, INWKGIAAMKKLL] | > 20 | >1000 | 
Ac-INWKKIASIGKEVLKAL-NH2 [PMM, INWKKIASIGKEVLKAL] | > 20 | 200 | 
Ac-INWKKIFEKVKNLV-NH2 [PDD-A, INWKKIFEKVKNLV] | > 20 | 200 | 
Ac-INWKKIKSIIKAAMN-NH2 [Mastoparan-V1, INWKKIKSIIKAAMN] | > 20 | 400 | 
Ac-INWKKIKSLIKAAMS-NH2 [Mastoparan-V2, INWKKIKSLIKAAMS] | > 20 | 200 | 
Ac-INWKKMAATALKMI-NH2 [Parapolybia-MP, INWKKMAATALKMI] | > 20 | >1000 | 
Ac-INWLKLGKKILGAI-NH2 [Mastoparan-R1, INWLKLGKKILGAI] | > 20 | 200 | 
Ac-INWLKLGKKILGAL-NH2 [PDD-B, INWLKLGKKILGAL] | > 20 | 1000 | 
Ac-INWLKLGKKMMSAL-NH2 [MP, INWLKLGKKMMSAL] | > 20 | 1000 | 
Ac-INWLKLGKMVIDAL-NH2 [Polybia-MPII, INWLKLGKMVIDAL] | > 20 | 400 | 
Ac-INWLKLGKQILGAL-NH2 [Mastoparan-R3, INWLKLGKQILGAL] | > 20 | 400 | 
Ac-LKLLGIVKKVLGAI-NH2 [EMP-EM2, LKLLGIVKKVLGAI] | < 5 | 200 | 
Ac-LKLMGIVKKVLGAL-NH2 [EMP-EM1, LKLMGIVKKVLGAL] | ≥ 10 | 200 | 
Ac-LNFKALAALAKKIL-NH2 [Mastoparan-R2, LNFKALAALAKKIL] | > 20 | 200 | 
Ac-NLKAIAALAKKLL-NH2 [Mastoparan-VT2, NLKAIAALAKKLL] | > 20 | 400 | 
Ac-VIVKAIATLSKKLL-NH2 [Mastoparan-VT5, VIVKAIATLSKKLL] | > 20 | >1000 | 
polymyxin B [PMB, reference compound] |  |  | less able to infect the psyllid nymphs
